{
  "source": "patent US8791267B2",
  "about": "“Biaryl PDE4 inhibitors for treating inflammatory, cardiovascular and CNS disorders” (Decode Genetics EHF, priority 2007, dated 2014)",
  "key": {"PDE4": {"target": "PDE4 (Homo sapiens, UniProt Q08499)", "sequence (Q08499 whole entry)": "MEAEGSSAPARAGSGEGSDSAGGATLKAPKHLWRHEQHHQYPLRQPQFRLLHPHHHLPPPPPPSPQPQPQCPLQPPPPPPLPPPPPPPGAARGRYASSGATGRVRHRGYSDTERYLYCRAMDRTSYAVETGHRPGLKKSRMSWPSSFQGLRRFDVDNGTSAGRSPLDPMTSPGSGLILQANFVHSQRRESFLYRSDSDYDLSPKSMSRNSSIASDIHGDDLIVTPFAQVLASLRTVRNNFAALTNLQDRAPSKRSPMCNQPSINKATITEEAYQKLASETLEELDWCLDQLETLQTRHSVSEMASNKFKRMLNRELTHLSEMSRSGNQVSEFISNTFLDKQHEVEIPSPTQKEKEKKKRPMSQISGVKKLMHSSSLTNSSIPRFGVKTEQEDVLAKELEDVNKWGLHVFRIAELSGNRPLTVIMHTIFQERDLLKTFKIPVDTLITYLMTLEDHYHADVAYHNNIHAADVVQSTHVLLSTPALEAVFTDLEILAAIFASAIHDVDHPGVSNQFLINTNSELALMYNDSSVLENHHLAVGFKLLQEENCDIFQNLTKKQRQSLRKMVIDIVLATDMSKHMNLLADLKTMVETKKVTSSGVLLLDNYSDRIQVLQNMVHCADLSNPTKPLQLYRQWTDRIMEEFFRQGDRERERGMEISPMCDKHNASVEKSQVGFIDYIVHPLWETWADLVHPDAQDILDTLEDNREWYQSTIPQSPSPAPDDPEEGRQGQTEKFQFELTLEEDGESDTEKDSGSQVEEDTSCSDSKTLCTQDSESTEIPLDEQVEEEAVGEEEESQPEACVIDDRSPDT", "assay": "In-vitro assay for PDE4 enzymes, real-time enzyme-coupled spectrophotometric assay (Table 9)", "format": "biochemical", "details": "human PDE4D; activity class, Table 9; read-out: hPDE4D"}, "PDE4B": {"target": "PDE4B (Homo sapiens, UniProt Q07343)", "sequence (Q07343 whole entry)": "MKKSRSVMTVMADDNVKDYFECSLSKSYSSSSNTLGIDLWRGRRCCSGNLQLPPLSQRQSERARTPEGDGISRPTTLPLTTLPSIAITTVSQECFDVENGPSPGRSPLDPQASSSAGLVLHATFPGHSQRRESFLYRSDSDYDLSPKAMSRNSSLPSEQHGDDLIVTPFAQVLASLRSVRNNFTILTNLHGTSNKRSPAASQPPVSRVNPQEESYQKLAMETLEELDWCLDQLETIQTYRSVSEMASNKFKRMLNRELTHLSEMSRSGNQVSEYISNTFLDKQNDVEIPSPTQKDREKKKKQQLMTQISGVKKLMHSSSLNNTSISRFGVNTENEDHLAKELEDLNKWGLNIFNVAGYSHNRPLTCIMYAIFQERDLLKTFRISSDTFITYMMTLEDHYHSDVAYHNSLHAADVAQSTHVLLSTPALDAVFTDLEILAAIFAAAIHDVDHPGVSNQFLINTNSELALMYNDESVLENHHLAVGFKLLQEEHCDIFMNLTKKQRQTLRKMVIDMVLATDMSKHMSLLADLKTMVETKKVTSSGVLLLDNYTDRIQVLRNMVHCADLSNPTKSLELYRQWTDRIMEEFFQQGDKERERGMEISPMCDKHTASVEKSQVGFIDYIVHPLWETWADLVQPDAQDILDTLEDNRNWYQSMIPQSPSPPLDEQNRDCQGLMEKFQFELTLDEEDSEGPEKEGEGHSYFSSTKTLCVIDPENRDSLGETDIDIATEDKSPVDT", "assay": "In-vitro assay for PDE4 enzymes, real-time enzyme-coupled spectrophotometric assay, PDE4B Activity (Table 10)", "format": "biochemical", "details": "human PDE4B (hPDE4B), enzyme-coupled spectrophotometric assay; read-out: PDE4B Activity, hPDE4B"}},
  "note": "Structures can show the parent of a compound that is named as a salt.",
  "data": [
    {"smiles": "COc1ccc(Cc2ccc(N(C)C)nc2)c(F)c1-c1cccc(Cl)c1", "note": "[P-473, [5-(3′-Chloro-2-fluoro-6-methoxy-biphenyl-3-ylmethyl)-pyridin-2-yl]-dimethyl-amine]", "values": [
      {"measurement": "IC50", "setting": "PDE4", "result": "< 5", "unit": "µM"},
      {"measurement": "IC50", "setting": "PDE4B", "result": "< 5", "unit": "µM"}
    ]},
    {"smiles": "O=C1CCCN1Cc1ccc(O)c(-c2cccc([N+](=O)[O-])c2)c1", "note": "[P-503, 1-(6-Hydroxy-3′-nitro-biphenyl-3-ylmethyl)-pyrrolidin-2-one]", "values": [
      {"measurement": "IC50", "setting": "PDE4", "result": "5 to 20", "unit": "µM"},
      {"measurement": "IC50", "setting": "PDE4B", "result": "5 to 20", "unit": "µM"}
    ]},
    {"smiles": "COc1ccc(Cc2ccc(N3CCCC3)nc2)c(F)c1-c1cccc(Cl)c1", "note": "[P-582, 5-(3′-Chloro-2-fluoro-6-methoxy-biphenyl-3-ylmethyl)-2-pyrrolidin-1-yl-pyridine]", "values": [
      {"measurement": "IC50", "setting": "PDE4", "result": "< 5", "unit": "µM"},
      {"measurement": "IC50", "setting": "PDE4B", "result": "< 5", "unit": "µM"}
    ]},
    {"smiles": "COc1ccc(Cn2ccc(C#N)cc2=O)cc1-c1cccc([N+](=O)[O-])c1", "note": "[P-196, 1-(6-Methoxy-3′-nitro-biphenyl-3-ylmethyl)-2-oxo-1,2-dihydro-pyridine-4-carbonitrile]", "values": [
      {"measurement": "IC50", "setting": "PDE4", "result": "< 5", "unit": "µM"},
      {"measurement": "IC50", "setting": "PDE4B", "result": "5 to 20", "unit": "µM"}
    ]},
    {"smiles": "COc1ccc(CN2C(=O)c3cccnc3C2=O)cc1-c1cccc([N+](=O)[O-])c1", "note": "[P-055, 6-(6-Methoxy-3′-nitro-biphenyl-3-ylmethyl)-pyrrolo[3,4-b]pyridine-5,7-dione]", "values": [
      {"measurement": "IC50", "setting": "PDE4", "result": "< 5", "unit": "µM"},
      {"measurement": "IC50", "setting": "PDE4B", "result": "5 to 20", "unit": "µM"}
    ]},
    {"smiles": "COc1ccc(Cc2ccc(N)cc2)c(F)c1-c1cccc(C(C)=O)c1", "note": "[P-261, 1-[3′-(4-Amino-benzyl)-2′-fluoro-6′-methoxy-biphenyl-3-yl]-ethanone; hydrochloride]", "values": [
      {"measurement": "IC50", "setting": "PDE4", "result": "< 5", "unit": "µM"},
      {"measurement": "IC50", "setting": "PDE4B", "result": "< 5", "unit": "µM"}
    ]},
    {"smiles": "[2H]C([2H])(c1ccc(NC(N)=O)cc1)c1ccc(OC)c(-c2cccc(Cl)c2)c1", "note": "[P-547, {4-[Bisduetero-(3′-chloro-6-methoxy-biphenyl-3-yl)-methyl]-phenyl}-urea]", "values": [
      {"measurement": "IC50", "setting": "PDE4", "result": "< 5", "unit": "µM"},
      {"measurement": "IC50", "setting": "PDE4B", "result": "< 5", "unit": "µM"}
    ]},
    {"smiles": "COc1ccc(Cc2cnc(NS(C)(=O)=O)nc2)c(F)c1-c1cccc(Cl)c1", "note": "[P-292]", "values": [
      {"measurement": "IC50", "setting": "PDE4", "result": "< 5", "unit": "µM"},
      {"measurement": "IC50", "setting": "PDE4B", "result": "5 to 20", "unit": "µM"}
    ]},
    {"smiles": "COc1ccc(CN2CCCC2=O)cc1-c1ccccc1", "note": "[P-162, 1-(6-Methoxy-biphenyl-3-ylmethyl)-pyrrolidin-2-one]", "values": [
      {"measurement": "IC50", "setting": "PDE4", "result": "5 to 20", "unit": "µM"},
      {"measurement": "IC50", "setting": "PDE4B", "result": "5 to 20", "unit": "µM"}
    ]},
    {"smiles": "CN1CC[C@@H](Oc2ccc(Cc3ccc(NC(N)=O)cc3)cc2-c2cccc(Cl)c2)C1", "note": "[P-565, {4-[3′-Chloro-6-((R)-1-methyl-pyrrolidin-3-yloxy)-biphenyl-3-ylmethyl]-phenyl}-urea]", "values": [
      {"measurement": "IC50", "setting": "PDE4", "result": "5 to 20", "unit": "µM"},
      {"measurement": "IC50", "setting": "PDE4B", "result": "21 to 40", "unit": "µM"}
    ]},
    {"smiles": "CCNC(=O)Nc1ccc(Cc2ccc(OC)c(-c3cccc(Cl)c3)c2F)cc1", "note": "[P-250]", "values": [
      {"measurement": "IC50", "setting": "PDE4", "result": "< 5", "unit": "µM"},
      {"measurement": "IC50", "setting": "PDE4B", "result": "< 5", "unit": "µM"}
    ]},
    {"smiles": "COc1ccc(CN2C(=O)CC[C@@H]2CN)cc1-c1cccc([N+](=O)[O-])c1", "note": "[P-156, (R)-5-Aminomethyl-1-(6-methoxy-3′-nitro-biphenyl-3-ylmethyl)-pyrrolidin-2-one]", "values": [
      {"measurement": "IC50", "setting": "PDE4", "result": "< 5", "unit": "µM"},
      {"measurement": "IC50", "setting": "PDE4B", "result": "< 5", "unit": "µM"}
    ]},
    {"smiles": "COc1ccc(Oc2ccc(F)cc2)cc1-c1cccc([N+](=O)[O-])c1", "note": "[P-193, 5-(4-Fluoro-phenoxy)-2-methoxy-3′-nitrobiphenyl]", "values": [
      {"measurement": "IC50", "setting": "PDE4", "result": "< 5", "unit": "µM"},
      {"measurement": "IC50", "setting": "PDE4B", "result": "< 5", "unit": "µM"}
    ]},
    {"smiles": "COc1ccc(Cc2c(C)nn(CC(F)(F)F)c2C)cc1-c1cccc([N+](=O)[O-])c1", "note": "[P-090, 4-(6-Methoxy-3′-nitro-biphenyl-3-ylmethyl)-3,5-dimethyl-1-(2,2,2-trifluoro-ethyl)-1H-pyrazole]", "values": [
      {"measurement": "IC50", "setting": "PDE4", "result": "< 5", "unit": "µM"},
      {"measurement": "IC50", "setting": "PDE4B", "result": "< 5", "unit": "µM"}
    ]},
    {"smiles": "COc1ccc(Cc2ccc3nc(C(N)=O)cn3c2)c(F)c1-c1cccc(Cl)c1", "note": "[P-429, 6-(3′-chloro-2-fluoro-6-methoxy-biphenyl-3-ylmethyl)-imidazo[1,2-a]pyridine-2-carboxylic acid amide]", "values": [
      {"measurement": "IC50", "setting": "PDE4", "result": "< 5", "unit": "µM"},
      {"measurement": "IC50", "setting": "PDE4B", "result": "< 5", "unit": "µM"}
    ]},
    {"smiles": "COc1ccc(Cc2cccnc2Cl)c(O)c1-c1cccc(N)c1", "note": "[P-182]", "values": [
      {"measurement": "IC50", "setting": "PDE4", "result": "5 to 20", "unit": "µM"},
      {"measurement": "IC50", "setting": "PDE4B", "result": "21 to 40", "unit": "µM"}
    ]},
    {"smiles": "COc1ccc(Cc2cnc(NC(N)=O)nc2)c(F)c1-c1cccc(Cl)c1", "note": "[P-291]", "values": [
      {"measurement": "IC50", "setting": "PDE4", "result": "< 5", "unit": "µM"},
      {"measurement": "IC50", "setting": "PDE4B", "result": "< 5", "unit": "µM"}
    ]},
    {"smiles": "COc1ccc(CN2C(=O)CCC2=O)cc1-c1cccc([N+](=O)[O-])c1", "note": "[P-036, 1-(6-Methoxy-3′-nitro-biphenyl-3-ylmethyl)-pyrrolidine-2,5-dione]", "values": [
      {"measurement": "IC50", "setting": "PDE4", "result": "< 5", "unit": "µM"},
      {"measurement": "IC50", "setting": "PDE4B", "result": "5 to 20", "unit": "µM"}
    ]}
  ]
}
